Test results from US20130303788A1, “METHOD OF PRODUCING BIPHENOLIC COMPOUND, NOVEL BIPHENYL COMPOUND AND SYNTHESIS METHOD THEREOF, AND PHARMACEUTICAL COMPOSITION FOR TREATING PARKINSON'S DISEASE” (Tzu Chi University, priority 2012, published 2013).

Columns and labels:
[1] = test system: SH-SY5Y human neuroblastoma cells; experiment: Effects on oxidative stress (TBHP or CHP), MTT assay; assay type: cell-based; details: 10 μM for 30 minutes, then CHP 300 μM for 3 hours; vs pathological control; FIG. 9
Protocol: 3-(4,5-Dimethylthiazol-2-yl)-2,5-diphenyltetrazolium bromide (MTT) assay was conducted generally as follows. A MTT solution was added to culture of the cells in the respective well so that a MTT concentration of 0.5 mg/mL was reached, followed by cultivation for 4 hours. The liquid in the respective well was removed, and dimethylsulfoxide (DMSO) was added into the respective well to dissolve formazan dye. Absorbance of the mixture in the respective well at 570 nm (OD570) was measured using an OPTImax microplate reader (Molecular Devices).
The SH-SY5Y human neuroblastoma cells were respectively treated with products 1, 2, 3, 4, 5, 7, and 3,3′-diallyl-biphenyl-4,4′-diol (compound 55) (10 μM) for 30 minutes. 3,3′-diallyl-biphenyl-4,4′-diol (compound 55) was prepared from commercially available 4,4′-biphenol (compound 54) generally according to the method as described in Ablard, F. et al., Bioorg. Med. Chem. Lett. 2007, 17, 4428. Subsequently, the SH-SY5Y human neuroblastoma cells were exposed to cumene hydroperoxide (CHP) or tert-butyl hydroperoxide (TBHP) (300 μM, Riedel-de Haen) for 3 hours after the treatment with the respective biphenolic compound of formula (I).
Cell viability was evaluated as follows. The SH-SY5Y human neuroblastoma cells were subjected to the MTT assay as described in section 1 of General Procedures. The relative cell viability (%) was calculated by substituting the absorbance into the following formula:
where D=relative cell viability • E=OD570 of the pathological control, or the SH-SY5Y human neuroblastoma cells treated with the respective biphenolic compound of formula (I) • F=OD570 of the normal control The obtained data were subjected to the statistical analysis as described in section 5 of General Procedures.

[2] = test system: mouse model of PD (6-OHDA unilateral striatal lesion); experiment: Apomorphine-induced rotation test in 6-OHDA mouse model of PD; assay type: in vivo, NMRI mice
Protocol: The respective NMRI mouse was anesthetized with ketamine ([…], intraperitoneally). Subsequently, the respective NMRI mouse was placed into a stereotactic frame with nose and ear bars specially designed for mice. 6-hydroxydopamine (6-OHDA) was injected with saline containing 0.02% ascorbic acid (as a vehicle) into the right striatum of the respective NMRI mouse so that unilateral striatal lesion was induced (i.e., damage to dopaminergic neurons in the unilateral striatum was induced). The injection was conducted at a rate of 1 μL/minute using a Hamilton syringe at the following coordinates: AP: −0.9 mm; ML: −1.9 mm; DV: −2.2 mm with respect to bregma, and a final dose of 15 μg was administered. The needle was left standing for 5 minutes after the injection was finished, and was slowly withdrawn.
The respective NMRI mouse was allowed to habituate to the ambient environment for 10 minutes before the apomorphine-induced rotation test was performed. Apomorphine was then injected intraperitoneally into the respective NMRI mouse at a dose of 0.5 mg/kg. The respective NMRI mouse was placed in a glass bowl with a diameter of 20 cm and was attached to an automatic rotometer (TSE, Bad Homburg, Germany) via a specially designed harness. Each circular movement exceeding 30° was recorded. The contralateral movements (toward the nonlesioned side) and ipsilateral movements (toward the lesioned side) of the NMRI mice were counted during a period of 60 minutes. The net rotation was calculated according to the following formula:
where A=net rotation • B=the total number of ipsilateral movements during the period of 60 minutes • C=the total number of contralateral movements during the period of 60 minutes 4. Determination of TH (Tyrosine Hydroxylase) Expression Level and iNOS (Inducible Nitric Oxide Synthase) Expression Level: […]
6-OHDA was injected into NMRI mice according to the method as described in section 2 of General procedures. Product 1 or product 2 was administered intraperitoneally to the respective NMRI mouse at a dose of 5 mg/kg, 1 mg/kg, 0.5 mg/kg, 0.1 mg/kg, or 0.05 mg/kg for 14 consecutive days, starting on Day 7 after the 6-OHDA injection. NMRI mice into which a vehicle (saline containing 0.02% ascorbic acid) was injected (generally according to the method as described in section 2 of General Procedures, except that 6-OHDA was not injected), and which were not treated with product 1 or product 2 after the injection of the vehicle, served as a sham operated control. NMRI mice into which 6-OHDA was injected and which were not treated with product 1 or product 2 after the 6-OHDA injection served as a pathological control. The rotational behavior of the NMRI mice was evaluated using the apomorphine-induced rotation test as described in section 3 of General Procedures on Days 7, 14, and 21 after the 6-OHDA injection.

[3] = test system: excitotoxicity induced by excitatory amino acids; details: Lin Yi-Ruu et al. (2006); cited from earlier work

## C=CCc1ccc(O)c(-c2ccc(O)c(CC=C)c2)c1 [product 1, 5,3′-Diallyl-biphenyl-2,4′-diol]
[1]
  prevention of cell death (relative cell viability) after exposure to CHP: significantly prevented cell death
[2]; 0.1 mg/kg i.p., 14 consecutive days starting Day 7 after 6-OHDA, FIG. 13
  unilateral rotations (apomorphine-induced), subchronic post-treatment, 0.1 mg/kg: not a low dose of product 1
[2]; 0.5 mg/kg i.p., 14 consecutive days starting Day 7 after 6-OHDA, FIG. 13
  unilateral rotations (apomorphine-induced), subchronic post-treatment, 0.5 mg/kg: significantly inhibited unilateral rotations
[2]; 1 mg/kg i.p., 14 consecutive days starting Day 7 after 6-OHDA, FIG. 13
  unilateral rotations (apomorphine-induced), subchronic post-treatment, 1 mg/kg: significantly inhibited unilateral rotations
[2]; 5 mg/kg or 10 mg/kg i.p. for 14 consecutive days after 6-OHDA injection, FIG. 11
  contralateral movements induced by apomorphine, subchronic treatment: significantly reduced the contralateral movements induced by apomorphine
[2]; 5 mg/kg or 10 mg/kg i.p. once, 30 minutes before 6-OHDA, tested one week after 6-OHDA, data not shown
  apomorphine-induced rotation behavior after single administration: did not prevent the apomorphine-induced rotation behavior
[3]
  neuroprotective effects via anti-oxidative abilities and antagonist actions against excitotoxicity: able to exert neuroprotective effects
